Test system: Crabgrasses
Assay: Herbicidal effect of Karmex D (DCMU) herbicide with or without compound 6 (Example 6)
Assay type: in vivo, crabgrass
Details: compound 6, where added, 2000 ppm in the diluted solution
Procedure: Crabgrasses (30 crabgrasses per pot) which were in a trifoliate stage were treated with the above herbicide in a predetermined concentration. 7 days after the treatment, the weight of survival at the aerical part and the percentage herbicidal effect relative to the untreated section (%) were calculated. 50% herbicidal concentration was also determined.
The above-mentioned preparation was diluted with water to have a predetermined concentration.

Question: Which “herbicidal effect (%)” value (active ingredient (DCMU) concn. 125 ppm) does the source give for `CCCCCCCCC(CCCCCC)C[N+](C)(C)Cc1ccc(Cl)cc1` (centres unmarked) [compound 6] here?
Answer: 39%

Question: And the “herbicidal effect (%)” value (active ingredient (DCMU) concn. 250 ppm)?
Answer: 55%

Question: And the “herbicidal effect (%)” value (active ingredient (DCMU) concn. 500 ppm)?
Answer: 77%

Question: And the “herbicidal effect (%)” value (active ingredient (DCMU) concn. 1000 ppm)?
Answer: 91%

Question: What about the “herbicidal effect (%)” value (active ingredient (DCMU) concn. 2000 ppm) of the same compound?
Answer: 100%

Source: patent US4888049A, “Synergist for biocide” (Kao Corporation, priority 1986, dated 1989)
